This note sets out measurements from patent publication US20240325394A1, “SALT AND CRYSTAL FORM OF NITROGEN-CONTAINING HETEROCYCLIC DERIVATIVE, PREPARATION METHOD THEREFOR AND APPLICATION THEREOF” (SHANGHAI HANSOH BIOMEDICAL CO., LTD., priority 2020, published 2024).

Data set [1] in a line: Plasma protein binding rate test, human plasma. Format: in vitro ADME. Conditions: 37° C. As for the experimental part:
(§1) The embodiment compound was prepared into a 1 mM solution A with DMSO.
(§2) Solution A was added to the plasma solution and prepared into a 5 μM solution B.
(§3) • 1) 200 μL of solution B was added into the membrane. • 2) 350 μL of PBS was added to the outside of the membrane. • 3) Incubating in a 37° C. water bath for 6 hours. • 4) The samples were processed for dilution and detected by mass spectrometry.
(§4) • instrument: Shimadzu LC-20 AD; • chromatographic column: phenomenex Gemiu® C18 (50*4.6 mm, 5 UM particle size); • mobile phase: A: Acetonitrile, B: 0.1% formic acid solution 0-0.5 min: 5% A→90% A, 2.0-2.1 min: 90% A→5% A; flow rate: 0.8 mL/min; running time: 5.0 min; injection volume: 5 μL.
(§5) • instrument: API4000 Liquid Chromatography-Mass Spectrometry, AB, USA; • the ion source was electrospray ionization source (ESI); • the temperature of dry gas (N2) was 500° C.; • electrospray voltage was 5500V; • the detection method was positive ion detection; • the scanning mode was selective response monitoring (MRM); the scanning time was 0.1 s.

Data set [2] is described as follows: Pharmacokinetics in MiaPaca 2 tumor-bearing mice (plasma, tumor tissue). Format: in vivo. Conditions: female, mouse, po; Plasma, p.o. 6 mg/kg. As for the experimental part: The pharmacokinetic behavior of the compound of the embodiment 13-1 and AMG-510 compound, administered orally at a dose of 6 mg/kg, in mice (plasma, tumor tissue and intestine) was studied using MiaPaca 2 tumor-bearing mice as test animals.
24 MiaPaca 2 tumor-bearing mice, females. 3 for each time point (0 h, 1 h, 2 h, 4 h, 6 h, 8 h, 16 h, 24 h). Shanghai xipuer-bikai Laboratory Animal Co., Ltd, Animal Production License No. (SCXK (Shanghai) 2018-0006.
Embodiment compound 13-1 and compound AMG-510 were weighed and dissolved in the solution, the mixture was shaken well, and ultrasound was performed for 15 minutes to obtain a uniform suspension with a concentration of 0.6 mg/mL.
MiaPaca 2 tumor-bearing mice were administered at a dose of 6 mg/kg in a volume of 10 mL/kg, respectively, based on body weight p.o. after fasting (animals were not administered at point 0 h).
Before and after administration, mice were sacrificed with CO2, 0.5 mL blood was collected from the heart and placed in EDTA-2K tube, centrifuged at 4° C. […] The duodenum, ileum and colon tissues were cut with scissors, the contents were removed and cleaned twice with PBS, after absorbing water with absorbent paper, they were weighed, placed in a 2 mL centrifuge tube and stored at −80° C.

In data set [3] the test system is plasma protein. The data set is described as follows: Plasma protein binding rate test, human plasma. The conditions noted are these: 5 μM, 37° C., 6 hours. Format: in vitro ADME. As for the experimental part: as §1, §2, §3, §4, §5
Data set [4] deals with human pancreatic cancer cell MiaPaca 2 xenograft (CDX). The data set is described as follows: Tumor inhibition on MiaPaca 2 transplanted tumor model. Type of data set: in vivo, BALB/c nude mice. Conditions: oral 6 mg/kg QD×3w. The protocol:
MiaPaca 2 cells were removed from the cell bank, revived and added to DMEM medium (containing 10% FBS, 1% Glu, 1% P/S) and incubated in a CO2 incubator (incubator temperature was 37° C., CO2 concentration was 5%). After the cells were spread to 80-90% of the bottom of the culture flask, the cells were continued to be cultured in the CO2 incubator. The process was repeated until the number of cells met the in vivo pharmacological inoculation requirement, and the cells in logarithmic growth period were collected and counted with an automatic cell counter, resuspended with PBS and Matrigel (volume ratio 1:1) according to the count results, made into a cell suspension (the density was 8×10^7/mL), and placed in an ice box for use.
BALB/c nude mice, female, 6-8 weeks old, weighing about 18-22 g. The mice were kept in an environment free of special pathogens and in a single ventilated cage with 5 mice in each cage. […] Nude mice were labeled with disposable universal ear tags for mice and rats before the start of the experiment, and the skin of the inoculation site was disinfected with 75% medical alcohol before inoculation, 0.1 mL (containing 8*10^6 cells) of MiaPaca 2 tumor cells were inoculated subcutaneously on the right back of each mouse. When the tumor volume reached 100-200 mm^3, the group administration was started.
The tumor volume (mm^3) was measured with vernier caliper twice a week, the calculation formula was V=[…], wherein D and d were the long and short diameter of the tumor, respectively. The anti-tumor efficacy was determined by dividing the average tumor increased volume of the compound-treated animals by the average tumor increased volume of the untreated animals. The formula of tumor inhibition rate is: TGI (%)=1−[(Vt−V0) administration group/(Vt−V0) solvent control group]*100%. After the experiment, all animals were euthanized.

The subject of data set [5] is phosphorylated ERK in Mia PaCa-2 cells. The data set is described as follows: Inhibition of phosphorylated ERK in Mia PaCa-2 cells (LANCE Ultra). Type of data set: cell-based, human. Conditions: 2 hours treatment; read-out: Mia PaCa-2 pERK IC50. The protocol:
When Mia PaCa-2 cells were cultured to the appropriate fusion level, Mia PaCa-2 cells were collected, and the cell density was adjusted to 1×10^6/mL using complete culture medium, the cell suspension was spread on a 96-well plate, 50 μL per well, and placed adherent to the wall in a 37° C., 5% CO2 incubator overnight, compound solutions with different concentrations were prepared using DMSO and complete culture medium, a solvent control was set, the compound solution was added to a 96-well plate, 25 μL per well, and placed in a 37° C., 5% CO2 incubator for 2 hours of continuous culture, the supernatant was discarded from the cell culture plate, 50 μL of lysis solution was added to each well, and lysing was performed for 30 minutes by shaking at room temperature, then the mixture was centrifuged at 1000 rpm for 1 minute, 15 μL of supernatant was transferred to 384 well plate, 5 μL of detection mixture (Eu-labeled anti-ERK1/2 (T202-Y204) antibody with final concentration of 0.5 nM and ULight labeled anti-ERK1/2 antibody with final concentration of 5 nM) was added to each well, centrifuged at 1000 rpm for 1 minute and mixed uniformly, the reaction was carried out overnight at room temperature, the plate was read with BioTek Synergy H1, and the signal values was detected at 620 nm and 665 nm emission wavelengths by time-resolved fluorescence program. […]

Data set [6] has as its system plasma protein. The data set is described as follows: Plasma protein binding rate test, rat plasma. Format: in vitro ADME. The conditions noted are these: 5 μM, 37° C., 6 hours. As for the experimental part:
as §1, §2, §3, §4, §5

Data set [7] deals with plasma protein. The data set is described as follows: Plasma protein binding rate test, mouse plasma. Type of data set: in vitro ADME. The conditions noted are these: 5 μM, 37° C., 6 hours. The protocol: as §1, §2, §3, §4, §5

pIC50: −log10 of the molar value.

The term fraction unbound denotes the share of the substance not bound to proteins or other matrix. The low end stands for little free substance, the high end for much free substance. By MRT is commonly meant the average time that molecules of a dose stay in the body. The half-life is the time in which the quantity being followed falls by half. As to `C=CC(=O)N1C[C@H](C)N(c2nc(=O)n(-c3c(SC)ccnc3C(C)C)c3nc(-c4c(N)ccc(Cl)c4F)c(Cl)cc23)C[C@H]1C` (atropisomer, axis not shown) [Embodiment 13-1, P-4-((2S,5R)-4-Acryloyl-2,5-dimethylpiperazin-1-yl)-7-(6-amino-3-chloro-2-fluorophenyl)-6-chloro-1-(2-isopropyl-4-(methylthio)pyridin-3-yl)pyrido[2,3-d]pyrimidin-2(1H)-one], the fraction unbound at 6 h, 5 μM in data set [1] is 0.003. For the same molecule, in data set [2], the MRT is 54 min and the half-life was 30 min.
For orientation: pIC50 means the negative decadic logarithm of the IC50, by convention in mol/L. On to “P-4-((2S,5R)-4-acryloyl-2,5-dimethylpiperazin-1-yl)-6-fluoro-7-(2-fluoro-6-hydroxyphenyl)-1-(2-isopropyl-4-(methylthio)pyridin-3-yl)pyrido[2,3-d]pyrimidin-2(1H)-one [Embodiment 2-1]”, for which the “Plasma protein binding rate, Human” value in data set [3] was 98.0. In addition, the “Tumor volume (mm^3, Mean ± SD) Day 0” value in data set [4] (Day 0) was found to be 177 ± 38 mm^3. Besides, in data set [4] (Day 21), the “TGI (%) Day 21” value came to 162.36%; the “Tumor volume (mm^3, Mean ± SD) Day 21” value was 67 ± 34 mm^3; the “ΔT/ΔC (%) Day 21” value is −62.36%. Further, the pIC50 in data set [5] is 7.42. For the same molecule, the “Plasma protein binding rate, Rat” value in data set [6] was 90.5. Also, the “Plasma protein binding rate, Mouse” value in data set [7] came out at 88.4.
